Experimental findings from patent US20060293335A1 (priority 2002, published 2006) are described below.

Like-named read-outs stand apart in the source and are kept apart here.

Series [1] has as its system oral ulcer after chemotherapy. Here is the method:
35 cases of acute lymphocytic leukemia and 13 cases of acute nonlymphocytic leukemia (6 M2 cases, 3 M3 cases, 2 M4 cases and 2 M5 cases) were also included.
Treatment: Regular chemotherapies, such as CODPL, HDMTX, DA were adopted. Other chemotherapies regimens were not listed. Tetrahydrofolate folic calcium was used to against the toxicity of HDMTX (hige-dose MTX). Hydration and alkalinizing of urine were performed in all patients by Dobll's solution. 5% NaHCO3 and 3% peroxide hydrogen were used to rinse the mouth alternatively.

For series [2] the following is noted: for urinary riboflavin excretion: i.m., riboflavin-free diet.
Experiment in series [3]: not given
This is another data set of the same source.

The subject of series [4] is blood glutathione reductase activity coefficient (BGRAC).
The subject of series [5] is Male wistar Rats. Particulars: medium and high LRM injected. Here is the method:
60 Wistar rats weighing 64.5±4.6 g were used in the experiment. […] The rats were weighed every 6 days. […] The blood glutathione reductase activity coefficient (BGRAC) was measured.

Series [6] relates to oral ulcer after bone marrow transplantation. Particulars: 28 leukemia cases with bone marrow transplantation; 150 mg LRM injected. Here is the method: 28 cases of leukemia with bone marrow transplantation were recruited. 150 mg LRM was injected for prevention of catarrh.
Where [7] appears, read: day 15, medium dosage (5.01 g for 90 days per rat as printed; riboflavin group same dosage).
[8] abbreviates: day 30, medium dosage (riboflavin group same dosage).
Where [9] appears, read: day 60, medium dosage (riboflavin group same dosage).
Where [10] appears, read: day 90, medium dosage (riboflavin group same dosage).

For `CCCCCCCCCCCC(=O)OC[C@@H](O)[C@@H](O)[C@@H](O)Cn1c2nc(=O)[nH]c(=O)c-2nc2cc(C)c(C)cc21` [LRM, 5′-lauric acid monoester of riboflavin], the food-intake entry (low dosage LRM group, after 30 days) is given as “decreased”. Besides, the weight gain result (medium and high dosage LRM groups) is reported as “gained weight significantly”. Also, the “gain of body weight” value (medium dosage LRM group, at the end of the experiment (FIG. 2)) is on record as “lower than that of the high dosage LRM group”. Moreover, the food intake entry is, setting by setting: (medium dosage LRM group, in the last few days) “decreased and was lower than that of the high dosage LRM group”; (the three LRM groups (FIG. 1)) “higher than the riboflavin group and the riboflavin deficiency group”. Besides, the “Occurrence (%) of oral ulcer” value in series [1] (ALL, LRM treated before chemotherapy (150 mg i.m.)) was found to be 0%; in series [1] (ALL, LRM treated in recent 3 months) it was 7.1%; in series [1] (ANLL, LRM treated before chemotherapy (150 mg i.m.)), 0%; in series [1] (ANLL, LRM treated in 3 months) it was 12.5%. Further, the “Ulcer observed (times)” value in series [1] (ALL, LRM treated before chemotherapy (150 mg i.m.), 18 chemotherapies) was 0 times; in series [1] (ALL, LRM treated in recent 3 months, 42 chemotherapies), 3 times; in series [1] (ANLL, LRM treated before chemotherapy (150 mg i.m.), 8 chemotherapies), 0 times; in series [1] (ANLL, LRM treated in 3 months, 8 chemotherapies), 1 times. Further, the “prevention of oral ulcer after chemotherapy” value in series [1] (LRM treatment prior to chemotherapy) is reported as “could effectively prevent the occurrence of oral ulcer after chemotherapy”. In addition, the “incidence of oral ulcer” value in series [1] (within 3 months after chemotherapy) is on record as “could effectively decrease the incidence of oral ulcer”. Further, in series [2] (after 15 days, riboflavin group, low and medium dosage LRM groups), the “riboflavin discharged in urine compared with riboflavin deficiency group” value is “higher than that in the riboflavin deficiency group”. Moreover, the urinary riboflavin excretion in series [2] (day 15, high dosage (double of medium)) is on record as 217.9 ± 60.2 μg per rat per day; in series [2] (day 15, low dosage (half of medium)), 5.6 ± 1.3 μg per rat per day; in series [2] (setting [7]), 34.8 ± 12.2 μg per rat per day; in series [2] (day 30, high dosage (double of medium)), 9.8 ± 3.5 μg per rat per day; in series [2] (day 30, low dosage (half of medium)) it was 4.1 ± 0.8 μg per rat per day; in series [2] (setting [8]), 5.0 ± 1.2 μg per rat per day. Besides, the urinary riboflavin excretion in series [2] (day 60, high dosage (double of medium)) stood at 9.9 ± 2.0 μg per rat per day; in series [2] (day 60, low dosage (half of medium)), 5.4 ± 1.3 μg per rat per day; in series [2] (setting [9]) it was 7.8 ± 1.3 μg per rat per day; in series [2] (day 90, high dosage (double of medium)) it was 5.9 ± 1.2 μg per rat per day; in series [2] (day 90, low dosage (half of medium)), 5.1 ± 0.9 μg per rat per day; in series [2] (setting [10]), 4.6 ± 1.1 μg per rat per day. Besides, the “urinary riboflavin excretion, course over time” value in series [2] (high dosage LRM group) was “markedly increased at the 15th day and then rapidly decreased after the 30 days”. In addition, the “riboflavin content in plasma, course” value in series [3] (high dosage LRM group (FIG. 4)) is “first elevated and then declined”. In addition, in series [3] (riboflavin group, low and medium dosage LRM groups (FIG. 4)), the “content of riboflavin in plasma, course” value is given as “decline”. The “BGRAC, course and order of groups” value in series [4] (low, medium and high dosage LRM groups (FIG. 3)) is recorded as “elevated, in the order as follows the low dosage LRM group>the medium dosage LRM group>the high dosage LRM group”. In addition, in series [5], the “release of free riboflavin in the body” value is “could slowly release free riboflavin and meet the demand of the body”. In addition, the “cases that suffered oral ulcer” value in series [6] is 4 cases. In addition, the “share of cases that suffered oral ulcer” value in series [6] came out at 14.3%.
With `Cc1cc2nc3c(=O)[nH]c(=O)nc-3n(C[C@H](O)[C@H](O)[C@H](O)CO)c2cc1C` [Riboflavin, riboflavin, reference compound], for the setting “riboflavin group (FIG. 1)”, the food intake result was “did not drop until 25 days later and still more than that in the riboflavin deficiency group”. Besides, the urinary riboflavin excretion in series [2] (setting [7]) came out at 4.0 ± 1.4 μg per rat per day; in series [2] (setting [8]), 7.8 ± 1.6 μg per rat per day; in series [2] (setting [9]), 4.5 ± 0.9 μg per rat per day; in series [2] (setting [10]), 4.2 ± 0.9 μg per rat per day. Besides, the “BGRAC, course and comparison” value in series [4] (riboflavin group, during the first 30 days (FIG. 3)) is “gradually increased and significantly higher than that in the LRM groups and lower than that in the riboflavin deficiency group”.
